Test results from patent US8318792B2, “Therapeutic agent for amyotrophic lateral sclerosis” (Nippon Medical School Foundation, priority 2006, dated 2012).

Columns and labels:
Format in all cases: in vivo, mouse
G1H-G93A transgenic mice [1] = assay: Exercise tolerance test: extension reflex test; settings: for Extension reflex test score: 5 mg/kg oral daily from 80th day (before onset), score 0-2
Description: (§1) The following five kinds of exercise tolerance tests were conducted every fifth day from the 70th day after birth to evaluate the ability to exercise in the respective exercise tolerance tests. That is, the days for the exercise tolerance tests were every fifth days, such as the 70th day, 75th day, 80th day, 85th day and so on, after birth. The exercise tolerance tests were conducted throughout the survival period, and the post-mortem evaluation was based on the definitions of the following five kinds of exercise tolerance tests.
As for extension reflex, extension of the hindlimbs is normally observed when a mouse is suspended in the air by its tail.
The evaluation of extension reflex test of the mice was performed based on the following criteria: Score 0=Extension reflex is recognized in both of the hindlimbs; Score 1=Extension reflex is recognized only one hindlimb; and Score 2=Extension reflex is not recognized in both of the hindlimbs. The post-mortem evaluation of the extension reflex test is defined as score 2.

G1H-G93A transgenic mice [2] = assay: Exercise tolerance test: footprint test; settings: 5 mg/kg oral daily from 80th day (before onset), score 0-4
Description: as §1
Both hindlimbs of a mouse are dipped in a black ink bottle, and then the mouse is allowed to walk on white paper. The footprints of the two hindlimbs of the mouse after the walking are analyzed. […] The post-mortem evaluation of the footprint test is defined as score 4.

G1H-G93A transgenic mice [3] = assay: Exercise tolerance test: rotarod test; settings: for Rotarod test score: 5 mg/kg oral daily from 80th day (before onset), score 0-3
Description: as §1
The apparatus used in the Rotarod test (Rota Rod Treadmill type 7600, Ugo Basile Co., Milano, Italy) is a rotating axle having a diameter of 3.6 cm, and this rotating axle is set up so as to have 16 revolution per minute (one rotation: 3.75 seconds). The period for which a mouse can remain on a rotating axle without falling is measured. The evaluation of the rotarod test for the mouse was performed based on the following criteria: Score 0=The time exceeds 60 seconds; Score 1=The time is more than 30 seconds and 60 seconds or less; Score 2=The time is more than 4 seconds and 30 seconds or less; and Score 3=The time is 4 seconds or less. The post-mortem evaluation of the rotarod test is defined as score 3.

G1H-G93A transgenic mice [4] = assay: Exercise tolerance test: beam balance test; settings: 5 mg/kg oral daily from 80th day (before onset), score 0-2
Description: as §1
The apparatus used in the beam balance test is constructed by maintaining a wooden beam having a diameter of 1.5 cm horizontally, and installing platforms which serve as footholds, on the respective sides in a distance of 30 cm. A mouse is placed on the platform on one side, and the time taken by the mouse to cross over the beam which is 30 cm in length and to arrive at the platform on the opposite side is measured. The evaluation of the beam balance test for the mouse was performed based on the following criteria: Score 0=The time is 10 seconds or less; Score 1=The time is more than 10 seconds to 15 seconds; and Score 2=The time is more than 15 seconds, or the mouse falls down. The post-mortem evaluation of the beam balance test is defined as score 2.

[5] = from the 125th day to 140th day after birth

SMILES: N#Cc1cc(-c2n[nH]c(-c3ccncc3)n2)ccn1 [compound (b), 4-(5-pyridin-4-yl-1H-[1,2,4]triazol-3-yl)pyridine-2-carbonitrile]
- Extension reflex test score (G1H-G93A transgenic mice [1]; 70th day after birth, 5 mg/kg): 0.0±0.0
- Extension reflex test score (G1H-G93A transgenic mice [1]; 75th day after birth, 5 mg/kg): 0.0±0.0
- Extension reflex test score (G1H-G93A transgenic mice [1]; 80th day after birth, 5 mg/kg): 0.0±0.0
- Extension reflex test score (G1H-G93A transgenic mice [1]; 85th day after birth, 5 mg/kg): 0.0±0.0
- Extension reflex test score (G1H-G93A transgenic mice [1]; 90th day after birth, 5 mg/kg): 0.0±0.0
- Extension reflex test score (G1H-G93A transgenic mice [1]; 95th day after birth, 5 mg/kg): 0.0±0.0
- Extension reflex test score (G1H-G93A transgenic mice [1]; 100th day after birth, 5 mg/kg): 0.0±0.0
- Extension reflex test score (G1H-G93A transgenic mice [1]; 105th day after birth, 5 mg/kg): 0.0±0.0
- effect in extension reflex test as compared to placebo group (G1H-G93A transgenic mice [1]; 105th, 110th, 115th and 120th day, 5 mg/kg oral daily from 80th day after birth, Mann-Whitney's U test): significant effects
- Extension reflex test score (G1H-G93A transgenic mice [1]; 110th day after birth, 5 mg/kg): 0.1±0.3
- Extension reflex test score (G1H-G93A transgenic mice [1]; 115th day after birth, 5 mg/kg): 0.5±0.5
- Extension reflex test score (G1H-G93A transgenic mice [1]; 120th day after birth, 5 mg/kg): 1.3±0.5
- Extension reflex test score (G1H-G93A transgenic mice [1]; 125th day after birth, 5 mg/kg): 1.8±0.4
- Extension reflex test score (G1H-G93A transgenic mice [1]; 130th day after birth): 2.0 ± 0.0
- Extension reflex test score (G1H-G93A transgenic mice [1]; 135th day after birth): 2.0 ± 0.0
- Extension reflex test score (G1H-G93A transgenic mice [1]; 140th day after birth): 2.0 ± 0.0
- Extension reflex test score (G1H-G93A transgenic mice [1]; from the 130th day to 140th day after birth): 2.0±0.0
- Footprint test score (G1H-G93A transgenic mice [2]; 70th day after birth): 0.0±0.0
- Footprint test score (G1H-G93A transgenic mice [2]; 75th day after birth): 0.0±0.0
- Footprint test score (G1H-G93A transgenic mice [2]; 80th day after birth): 0.0±0.0
- Footprint test score (G1H-G93A transgenic mice [2]; 85th day after birth): 0.0±0.0
- Footprint test score (G1H-G93A transgenic mice [2]; 90th day after birth): 0.0±0.0
- Footprint test score (G1H-G93A transgenic mice [2]; 95th day after birth): 0.0±0.0
- Footprint test score (G1H-G93A transgenic mice [2]; 100th day after birth): 0.0±0.0
- Footprint test score (G1H-G93A transgenic mice [2]; 105th day after birth): 0.0±0.0
- Footprint test score (G1H-G93A transgenic mice [2]; 110th day after birth): 0.1±0.3
- Footprint test score (G1H-G93A transgenic mice [2]; 115th day after birth): 0.6±0.7
- Footprint test score (G1H-G93A transgenic mice [2]; 120th day after birth): 1.8±1.0
- Footprint test score (G1H-G93A transgenic mice [2]; 125th day after birth): 2.8±0.4
- Footprint test score (G1H-G93A transgenic mice [2]; 130th day after birth): 3.4±0.5
- Footprint test score (G1H-G93A transgenic mice [2]; 135th day after birth): 3.9±0.3
- Footprint test score (G1H-G93A transgenic mice [2]; 140th day after birth): 4.0±0.0
- Rotarod test score (G1H-G93A transgenic mice [3]; 70th day after birth, 5 mg/kg): 0.0±0.0
- Rotarod test score (G1H-G93A transgenic mice [3]; 75th day after birth, 5 mg/kg): 0.0±0.0
- Rotarod test score (G1H-G93A transgenic mice [3]; 80th day after birth, 5 mg/kg): 0.0±0.0
- Rotarod test score (G1H-G93A transgenic mice [3]; 85th day after birth, 5 mg/kg): 0.0±0.0
- Rotarod test score (G1H-G93A transgenic mice [3]; 90th day after birth, 5 mg/kg): 0.0±0.0
- Rotarod test score (G1H-G93A transgenic mice [3]; 95th day after birth, 5 mg/kg): 0.0±0.0
- Rotarod test score (G1H-G93A transgenic mice [3]; 100th day after birth, 5 mg/kg): 0.0±0.0
- Rotarod test score (G1H-G93A transgenic mice [3]; 105th day after birth, 5 mg/kg): 0.0±0.0
- effect in rotarod test as compared to placebo group (G1H-G93A transgenic mice [3]; 105th, 110th and 115th day, 5 mg/kg oral daily from 80th day after birth, Mann-Whitney's U test): significant effects
- Rotarod test score (G1H-G93A transgenic mice [3]; 110th day after birth, 5 mg/kg): 0.5±0.7
- Rotarod test score (G1H-G93A transgenic mice [3]; 115th day after birth, 5 mg/kg): 1.3±1.1
- Rotarod test score (G1H-G93A transgenic mice [3]; 120th day after birth, 5 mg/kg): 2.5±0.5
- Rotarod test score (G1H-G93A transgenic mice [3]; 125th day after birth): 3.0 ± 0.0
- Rotarod test score (G1H-G93A transgenic mice [3]; 130th day after birth): 3.0 ± 0.0
- Rotarod test score (G1H-G93A transgenic mice [3]; 135th day after birth): 3.0 ± 0.0
- Rotarod test score (G1H-G93A transgenic mice [3]; 140th day after birth): 3.0 ± 0.0
- Rotarod test score (G1H-G93A transgenic mice [3]; [5]): 3.0±0.0
- Beam balance test score (G1H-G93A transgenic mice [4]; 70th day after birth, 5 mg/kg): 0.0±0.0
- Beam balance test score (G1H-G93A transgenic mice [4]; 75th day after birth, 5 mg/kg): 0.0±0.0
- Beam balance test score (G1H-G93A transgenic mice [4]; 80th day after birth, 5 mg/kg): 0.0±0.0
- Beam balance test score (G1H-G93A transgenic mice [4]; 85th day after birth, 5 mg/kg): 0.0±0.0
- Beam balance test score (G1H-G93A transgenic mice [4]; 90th day after birth, 5 mg/kg): 0.0±0.0
- Beam balance test score (G1H-G93A transgenic mice [4]; 95th day after birth, 5 mg/kg): 0.0±0.0
- Beam balance test score (G1H-G93A transgenic mice [4]; 100th day after birth, 5 mg/kg): 0.0±0.0
- Beam balance test score (G1H-G93A transgenic mice [4]; 105th day after birth, 5 mg/kg): 0.0±0.0
- Beam balance test score (G1H-G93A transgenic mice [4]; 110th day after birth, 5 mg/kg): 0.1±0.3
- Beam balance test score (G1H-G93A transgenic mice [4]; 115th day after birth, 5 mg/kg): 0.6±0.7
- Beam balance test score (G1H-G93A transgenic mice [4]; 120th day after birth, 5 mg/kg): 1.5±0.5
- Beam balance test score (G1H-G93A transgenic mice [4]; 125th day after birth): 2.0 ± 0.0
- Beam balance test score (G1H-G93A transgenic mice [4]; 130th day after birth): 2.0 ± 0.0
- Beam balance test score (G1H-G93A transgenic mice [4]; 135th day after birth): 2.0 ± 0.0
- Beam balance test score (G1H-G93A transgenic mice [4]; 140th day after birth): 2.0 ± 0.0
- Beam balance test score (G1H-G93A transgenic mice [4]; [5]): 2.0±0.0
